According to patent publication US20240336595A1, “BIFUNCTIONAL COMPOUNDS FOR DEGRADING BTK WITH DIMINISHED IMID ACTIVITY” (NURIX THERAPEUTICS, INC., priority 2021, published 2024):

Columns and labels:
[1] = target: T1, BTK (Mus musculus, UniProt P35991); assay: BTK level in B cells of dosed mice; assay type: in vivo, C57BL/6 mice; set-up: Single cell suspensions from each tissue were permeabilized and stained for lineage markers and intracellular BTK; from tissue; conditions: 30 mg/kg in water bottle; blood, spleens, peritoneum and bone marrow
T1 sequence (P35991 whole entry): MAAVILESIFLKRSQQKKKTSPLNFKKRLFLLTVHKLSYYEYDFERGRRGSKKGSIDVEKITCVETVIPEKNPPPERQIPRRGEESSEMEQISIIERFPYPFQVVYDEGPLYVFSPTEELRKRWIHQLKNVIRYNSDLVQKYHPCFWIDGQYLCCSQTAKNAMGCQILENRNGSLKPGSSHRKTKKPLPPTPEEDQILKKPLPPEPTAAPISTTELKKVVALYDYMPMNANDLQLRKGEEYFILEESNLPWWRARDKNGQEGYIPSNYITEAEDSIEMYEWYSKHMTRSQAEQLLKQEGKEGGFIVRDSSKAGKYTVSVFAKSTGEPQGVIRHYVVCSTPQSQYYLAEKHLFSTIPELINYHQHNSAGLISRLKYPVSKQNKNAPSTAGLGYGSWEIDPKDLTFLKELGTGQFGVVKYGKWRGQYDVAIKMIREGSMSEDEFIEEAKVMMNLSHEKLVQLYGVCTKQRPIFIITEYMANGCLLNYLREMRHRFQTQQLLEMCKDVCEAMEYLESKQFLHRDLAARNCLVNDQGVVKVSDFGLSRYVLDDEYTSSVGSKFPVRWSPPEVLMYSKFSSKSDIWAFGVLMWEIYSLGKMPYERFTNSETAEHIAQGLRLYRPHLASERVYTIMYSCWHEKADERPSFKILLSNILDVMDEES
Procedure: (§1) A separate group of mice received vehicle formulation as control. Blood spleens and femurs for each treated mice were harvested at the end of the study. Peritoneal lavage was also performed with PBS to harvest peritoneal resident lymphocyte.
To evaluate level of BTK in B cells, Single cell suspensions from each tissue were permeabilized and stained for lineage markers and intracellular BTK. B cells were gated on B220+ TCRbeta−, and T cells were gated on B220− and TCRbeta+.

[2] = tested on: B cells compartment; assay: Dosing effect on B cells compartment (B cells, plasma cells); assay type: in vivo, C57BL/6 mice; conditions: 30 mg/kg in water bottle
Procedure: as §1
It is plausible that Compound 1 affects one or multiple proteins that are involved either in generation or the survival of plasma cells and that this effect is independent from its ability to degrade the BTK protein. Left, representative dot plots showing the gating strategy to identify plasma cells in bone marrow. Right histograms showing cumulative data from multiple treated animals.
An ordinary one-way ANOVA with Tukey's multiple comparisons test was performed, and all groups were compared to each other. * p<0.05, ** p<0.01,**** p<0.001. All comparisons without an asterisk were not significant.

[3] = tested on: Aiolos; assay: IMiD activity: Aiolos degradation in PBMCs by flow cytometry; assay type: cell-based; conditions: human PBMCs, 24 hours
Procedure: In addition, Compounds 1-24 were assayed for IMiD activity. Frozen human peripheral blood mononuclear cells (PBMCs) were thawed and treated with DMSO or compound for 24 hours and then fixed and permeabilized using a Foxp3/Transcription Factor Fixation/Permeabilization Kit (eBioscience, 00-5523). Cells were stained with fluorophore-conjugated antibodies against CD20 (Biolegend 302330), CD3 (BD Pharmingen 552127), and Aiolos (Biolegend 371106). An additional set of DMSO-treated PBMCs was stained for CD20, CD3, and an AlexaFluor 647-conjugated mouse IgG1 isotype control antibody (Biolegend 400136). Stained cells were run on an Attune NxT Acoustic Focusing Flow Cytometer (Thermo-Fisher A29004), and data was analyzed using FlowJo (v10.5.3) and GraphPad Prism (v7.00) software. Single lymphocytes were gated for B cells (CD20+CD3-) and T cells (CD3+CD20-), and the geometric mean fluorescence intensity (MFI) of Aiolos was calculated for each population. The MFI of the isotype control was calculated for each population and used to quantify background staining. Percent Aiolos degradation was calculated for each compound-treated sample using the following equation: […]
DC50 is the compound concentration degrading 50% of Aiolos. Dmax is the maximum percent Aiolos degradation in the assay.

[4] = tested on: well-established arthritis; assay: Mouse model of well-established arthritis, clinical arthritis score; assay type: in vivo, male DBA/1 mice
[5] = tested on: intracranial TMD8 tumors; assay: Intracranial TMD8 tumor model, tumor burden; assay type: in vivo, female CB.17 SCID mice; conditions: 90 mg/kg orally every day for twelve days, vs vehicle
Excerpt: TMD8 is a human activated B cell (ABC)-type diffuse large B cell lymphoma (DLBCL) cell line that is dependent on BTK signaling for survival (Davis, R. E., Ngo, V. N., Lenz, G., Tolar, P., Young, R. M., Romesser, P. B., Staudt, L. M. (2010). Chronic active B-cell-receptor signalling in diffuse large B-cell lymphoma. Nature, 463(7277), 88-92. doi: 10.1038/nature08638).
TMD8 cells were implanted into female CB.17 SCID mice by intracranial injection of 5E5 TMD8 cells. Treatment with compound 1 begun the following day. Mice were treated orally every day for twelve days with either vehicle or 90 mg/kg of Compound 1. Brains were then harvested, dissociated into single cell suspensions and BTK level in TMD8 cells was assessed by flow cytometry. TMD8 cells in dissociated brain tissue were identified by human-specific surface markers (CD20+HLA+) and total numbers of TMD8 cells per brain is reported in (A, tumor burden). Percent BTK remaining in TMD8 cells (B) was calculated according to the below formula: […]

[6] = target: T2, tumor-expressed BTK (Homo sapiens, UniProt Q06187); assay: Intracranial TMD8 tumor model, BTK remaining in TMD8 cells; assay type: in vivo, female CB.17 SCID mice; conditions: 90 mg/kg orally every day for twelve days, vs vehicle
T2 construct: endogenous in cells; host or cells: TMD8 cells (human ABC-DLBCL) grown intracranially in CB.17 SCID mice
T2 sequence (Q06187 whole entry): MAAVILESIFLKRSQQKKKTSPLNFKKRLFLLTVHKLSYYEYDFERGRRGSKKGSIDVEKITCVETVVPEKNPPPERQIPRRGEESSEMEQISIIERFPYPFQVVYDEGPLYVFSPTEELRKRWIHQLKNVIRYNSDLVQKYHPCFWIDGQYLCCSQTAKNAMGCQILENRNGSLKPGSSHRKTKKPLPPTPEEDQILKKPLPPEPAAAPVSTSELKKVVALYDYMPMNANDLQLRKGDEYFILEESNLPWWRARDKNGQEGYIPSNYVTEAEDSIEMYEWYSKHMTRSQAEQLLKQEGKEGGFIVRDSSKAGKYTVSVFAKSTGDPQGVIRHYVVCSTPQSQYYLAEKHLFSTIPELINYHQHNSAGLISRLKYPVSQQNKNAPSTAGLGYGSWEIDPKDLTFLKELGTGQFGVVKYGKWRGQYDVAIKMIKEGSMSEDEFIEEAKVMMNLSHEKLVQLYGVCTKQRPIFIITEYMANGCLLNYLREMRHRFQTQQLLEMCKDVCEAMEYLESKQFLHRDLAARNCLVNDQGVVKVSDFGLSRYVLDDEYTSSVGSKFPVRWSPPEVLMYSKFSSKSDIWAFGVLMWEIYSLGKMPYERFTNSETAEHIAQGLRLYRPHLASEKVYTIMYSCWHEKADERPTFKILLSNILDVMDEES
Procedure: TMD8 cells were implanted into female CB.17 SCID mice by intracranial injection of 5E5 TMD8 cells. Treatment with compound 1 begun the following day. Mice were treated orally every day for twelve days with either vehicle or 90 mg/kg of Compound 1. Brains were then harvested, dissociated into single cell suspensions and BTK level in TMD8 cells was assessed by flow cytometry. TMD8 cells in dissociated brain tissue were identified by human-specific surface markers (CD20+HLA+) and total numbers of TMD8 cells per brain is reported in (A, tumor burden). Percent BTK remaining in TMD8 cells (B) was calculated according to the below formula:
100*(tumor BTK MFI−background MFI)/(peak MFI−background MFI),
where background MFI and peak MFI were calculated using TMD8 cells treated, in vitro, overnight with 1 μM compound 1 or DMSO control, respectively. In FIG. 8,**** p<0.0001; Welch's t-test was used to compare mice treated with compound 1 to mice treated with vehicle.

[7] = target: T1, BTK; assay: BTK level in spleen B cells after NP-KLH immunization; assay type: in vivo, Mice; set-up: from tissue; host or cells: mouse spleen B cells (CD19+ TCRbeta-)
Procedure: Mice were immunized by intraperitoneal injection of 200 μL of immunogen containing 100 μg NP-32-KLH (Biosearch Technologies, Cat. N-5060-25,Lot. 156285-01) and 1% Alum (Alhydrogel, 2%, Invivogen Cat. Vac-alu-250, Batch 0001715532, Exp. July 2022), prepared in phosphate buffered saline. Group 1 mice were not immunized and used as control. Mice in Group 2 to 5 were dosed orally once a day from Day 1 to Day 7 with compounds or vehicle for six additional days and then sacrificed the following day. Splenocytes and bone marrow were harvested 24 hours following the final dosing of compound on Day 7. Spleens harvested at the end of the study were dissociated, and red blood cells were lysed with ammonium-chloride-potassium (ACK) lysis buffer. 1 million cells per tissue were stained for each flow cytometry panel.
Cells were permeabilized and stained for lineage markers and intracellular BTK. B cells were gated on CD19+ TCRbeta−, and T cells were gated on CD19− and TCRbeta+.

BTK level in B cells [1]: robust BTK degradation
DC50 ([3]; compound concentration degrading 50% of Aiolos): 631 nM
BTK in TMD8 tumor cells [6]: degradation of tumor-expressed BTK
BTK in TMD8 tumor cells ([6]; listed as compound 1): degraded BTK
BTK degradation in spleens ([7]; NP-KLH immunized mice, oral once a day): robust BTK degradation
BTK levels (percent BTK remaining in B cells) ([7]; spleen, 24 hours after the final dose, normalized to naive group): 13.4 % of baseline
SMILES: CN1CCN([C@@H]2CCCN(c3cnc(C(N)=O)c(Nc4ccc(C5CCN(CC6CCN(c7ccc(C(=O)N[C@H]8CCC(=O)NC8=O)nc7)CC6)CC5)cc4)n3)C2)C1=O [Compound 1]
plasma cells number in bone marrow [2]: significantly reduce
B cells percentage ([2]; blood, spleens, peritoneum and bone marrow): does not significantly affect
Dmax ([3]; maximum percent Aiolos degradation in the assay): 18.7%
disease (clinical arthritis score) ([4]; 10 mg/kg or 30 mg/kg once daily oral, started after arthritis was established, to Arthritis Day 14): strongly suppressed disease
control of disease compared with comparators ([4]; Compound 1 and ibrutinib 30 mg/kg, Enbrel 10 mg/kg i.p., tofacitinib 30 mg/kg twice daily, rilzabrutinib): more potently than anti-TNF-alpha blocking antibody (Enbrel) or BTK inhibitors rilzabrutinib and tofacitinib
tumor burden (total TMD8 cells per brain) [5]: reduced tumor burden
tumor burden (total TMD8 cells per brain) ([5]; listed as compound 1): significantly reduced TMD8 tumor cells
